According to patent US6376497B1, “Antifungal azole derivatives having a fluorinated vinyl group and process for preparing same” (Korea Research Institute of Chemical Technology, priority 1999, dated 2002):
Converted amounts (≈) assume the structure as drawn.

Key:
Test in all cases: In vitro antifungal activity, microbroth dilution MIC
Type in all cases: cell-based
Candida krusei K. 11655 = details: 4 to 48 hours; for Minimal inhibitory concentration (MIC): C. krusei K. 11655, RPMI-1640, 35° C.; for Minimal inhibitory concentration(MIC), C. krusei K. 11655: RPMI-1640, 35° C., no growth observed
Method in brief: (§1)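 Broth microdilution adapted from NCCLS M27, in RPMI-1640 with 0.165 M MOPS, pH 7.0. Yeast or mould inoculum at 2×10^3 CFU/ml was mixed 1:1 with DMSO-derived compound solutions (200 to 0.10 μg/ml before mixing) and incubated at 35 °C for 4 to 48 h. MIC was the concentration showing no growth.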

[1] = test system: Candida pseudotropicalis K. 11658; details: 4 to 48 hours; for Minimal inhibitory concentration (MIC): C. pseudotropicalis K. 11658, RPMI-1640, 35° C.; for Minimal inhibitory concentration(MIC), C. pseudotropicalis K. 11658: RPMI-1640, 35° C., no growth observed
Method in brief: as §1

[2] = test system: Cryptococcus neoformans A. 34144; details: 4 to 48 hours; for Minimal inhibitory concentration (MIC): Cry. neoformans A. 34144, RPMI-1640, 35° C.; for Minimal inhibitory concentration(MIC), Cry. neoformans A. 34144: RPMI-1640, 35° C., no growth observed
Method in brief: as §1

[3] = test system: Candida tropicalis A. 13803; details: 4 to 48 hours; for Minimal inhibitory concentration (MIC): C. tropicalis A. 13803, RPMI-1640, 35° C.; for Minimal inhibitory concentration(MIC), C. tropicalis A. 13803: RPMI-1640, 35° C., no growth observed
Method in brief: as §1

[4] = test system: Aspergillus furnigatus B. 19119; details: 4 to 48 hours; for Minimal inhibitory concentration (MIC): A furnigatus B. 19119, RPMI-1640, 35° C.; for Minimal inhibitory concentration(MIC), A furnigatus B. 19119: RPMI-1640, 35° C., no growth observed
Method in brief: as §1

[5] = test system: Aspergillus niger A. 16404; details: 4 to 48 hours; for Minimal inhibitory concentration (MIC): A. niger A. 16404, RPMI-1640, 35° C.; for Minimal inhibitory concentration(MIC), A. niger A. 16404: RPMI-1640, 35° C., no growth observed
Method in brief: as §1

[6] = test system: Trichophyton mentagrophytes A. 9129; details: 4 to 48 hours; for Minimal inhibitory concentration (MIC): T. mentagrophytes A. 9129, RPMI-1640, 35° C.; for Minimal inhibitory concentration(MIC), T. mentagrophytes A. 9129: RPMI-1640, 35° C., no growth observed
Method in brief: as §1

[7] = test system: Cryptococcus neoformans IFM. 40092; details: 4 to 48 hours; for Minimal inhibitory concentration (MIC): Cry. neoformans IFM. 40092, RPMI-1640, 35° C.; for Minimal inhibitory concentration(MIC), Cry. neoformans IFM. 40092: RPMI-1640, 35° C., no growth observed
Method in brief: as §1

Candida albicans C1-2 = details: C. albicans C1-2, RPMI-1640, 35° C., 4 to 48 hours
Method in brief: as §1

[8] = test system: Candida parapsitosis A. 7330; details: 4 to 48 hours; for Minimal inhibitory concentration (MIC): C. parapsitosis A. 7330, RPMI-1640, 35° C.; for Minimal inhibitory concentration(MIC), C. parapsitosis A. 7330: RPMI-1640, 35° C., no growth observed
Method in brief: as §1

[9] = test system: Torulopsis glabrata B. 16205; details: 4 to 48 hours; for Minimal inhibitory concentration (MIC): T. glabrata B. 16205, RPMI-1640, 35° C.; for Minimal inhibitory concentration(MIC), T. glabrata B. 16205: RPMI-1640, 35° C., no growth observed
Method in brief: as §1

[10] = test system: Cryptococcus neoformans B. 42419; details: 4 to 48 hours; for Minimal inhibitory concentration (MIC): Cry. neoformans B. 42419, RPMI-1640, 35° C.; for Minimal inhibitory concentration(MIC), Cry. neoformans B. 42419: RPMI-1640, 35° C., no growth observed
Method in brief: as §1

[11] = test system: Trichophyton mentagrophytes B. 32663; details: 4 to 48 hours; for Minimal inhibitory concentration (MIC): T. mentagrophytes B. 32663, RPMI-1640, 35° C.; for Minimal inhibitory concentration(MIC), T. mentagrophytes B. 32663: RPMI-1640, 35° C., no growth observed
Method in brief: as §1

[12] = test system: Candida albicans IFO. 1385; details: 4 to 48 hours; for Minimal inhibitory concentration (MIC): C. albicans IFO. 1385, RPMI-1640, 35° C.; for Minimal inhibitory concentration(MIC), C. albicans IFO. 1385: RPMI-1640, 35° C., no growth observed
Method in brief: as §1

[13] = test system: Candida albicans A. 10231; details: C. albicans A. 10231, RPMI-1640, 35° C., 4 to 48 hours
Method in brief: as §1

| Minimal inhibitory concentration (MIC) (Candida krusei K. 11655) [µg/mL] | Minimal inhibitory concentration (MIC) [1] [µg/mL] | Minimal inhibitory concentration (MIC) [2] [µg/mL] | Minimal inhibitory concentration (MIC) [3] [µg/mL] | Minimal inhibitory concentration (MIC) [4] [µg/mL] | Minimal inhibitory concentration (MIC) [5] [µg/mL] | Minimal inhibitory concentration (MIC) [6] [µg/mL] | Minimal inhibitory concentration (MIC) [7] | Minimal inhibitory concentration (MIC) (Candida albicans C1-2) [µg/mL] | Minimal inhibitory concentration (MIC) [8] [µg/mL] | Minimal inhibitory concentration (MIC) [9] [µg/mL] | Minimal inhibitory concentration (MIC) [10] [µg/mL] | Minimal inhibitory concentration (MIC) [11] [µg/mL] | Minimal inhibitory concentration (MIC) [12] [µg/mL] | Minimal inhibitory concentration (MIC) [13] [µg/mL] | Minimal inhibitory concentration(MIC), C. krusei K. 11655 (Candida krusei K. 11655) [µg/mL] | Minimal inhibitory concentration(MIC), C. pseudotropicalis K. 11658 [1] [µg/mL] | Minimal inhibitory concentration(MIC), Cry. neoformans A. 34144 [2] [µg/mL] | Minimal inhibitory concentration(MIC), C. tropicalis A. 13803 [3] [µg/mL] | Minimal inhibitory concentration(MIC), A furnigatus B. 19119 [4] [µg/mL] | SMILES | other results |
| --- | --- | --- | --- | --- | --- | --- | --- | --- | --- | --- | --- | --- | --- | --- | --- | --- | --- | --- | --- | --- | --- |
| 100 | 50.0 | 3.13 | 100 | 50.0 | 100 | 3.13 | 0.78 µg/mL | 25.0 | >100 | 25.0 | 3.13 | 3.13 | 6.25 | 25.0 |  |  |  |  |  | Cc1cccc(C=C(F)OCC2COC(Cn3cncn3)(c3ccc(Cl)cc3Cl)O2)c1 (mixture of isomers) [Ex. 70] |  |
|  |  |  |  |  |  |  |  | 100 |  |  |  |  |  | 100 | 100 | 25.0 | 1.56 | 100 | 100 | FC(=Cc1ccc2c(c1)OCO2)OCC1COC(Cn2cncn2)(c2ccc(Cl)cc2Cl)O1 (mixture of isomers) [Ex. 75] | Minimal inhibitory concentration(MIC), A. niger A. 16404 [5]: >100 µg/mL; Minimal inhibitory concentration(MIC), T. mentagrophytes A. 9129 [6]: 3.13 µg/mL; Minimal inhibitory concentration(MIC), Cry. neoformans IFM. 40092 [7]: 0.39 µg/mL; Minimal inhibitory concentration(MIC), C. parapsitosis A. 7330 [8]: >100 µg/mL; Minimal inhibitory concentration(MIC), T. glabrata B. 16205 [9]: 50.0 µg/mL; Minimal inhibitory concentration(MIC), Cry. neoformans B. 42419 [10]: 1.56 µg/mL; Minimal inhibitory concentration(MIC), T. mentagrophytes B. 32663 [11]: 3.13 µg/mL; Minimal inhibitory concentration(MIC), C. albicans IFO. 1385 [12]: 25.0 µg/mL |
| 25.0 (≈ 50.7 µM) | 6.25 (≈ 12.7 µM) | 1.56 (≈ 3.16 µM) | 50.0 (≈ 101 µM) | 12.5 (≈ 25.3 µM) | 50.0 (≈ 101 µM) | 6.25 (≈ 12.7 µM) | ≦0.10 μg/ml | 12.5 (≈ 25.3 µM) | 12.5 (≈ 25.3 µM) | 12.5 (≈ 25.3 µM) | 1.56 (≈ 3.16 µM) | 1.56 (≈ 3.16 µM) | 1.56 (≈ 3.16 µM) | 25.0 (≈ 50.7 µM) |  |  |  |  |  | CCOc1ccc(C=C(F)OCC2COC(Cn3ccnc3)(c3ccc(Cl)cc3Cl)O2)cc1 (stereo not drawn) [Ex. 10] |  |
|  |  |  |  |  |  |  |  | 50.0 |  |  |  |  |  | 50.0 | 100 | 25.0 | 1.56 | 100 | 100 | Cc1ccc(C=C(F)OCC2COC(Cn3cncn3)(c3ccc(Cl)cc3Cl)O2)cc1 (mixture of isomers) [Ex. 71] | Minimal inhibitory concentration(MIC), A. niger A. 16404 [5]: 100 µg/mL; Minimal inhibitory concentration(MIC), T. mentagrophytes A. 9129 [6]: 6.25 µg/mL; Minimal inhibitory concentration(MIC), Cry. neoformans IFM. 40092 [7]: 0.20 µg/mL; Minimal inhibitory concentration(MIC), C. parapsitosis A. 7330 [8]: 100 µg/mL; Minimal inhibitory concentration(MIC), T. glabrata B. 16205 [9]: 25.0 µg/mL; Minimal inhibitory concentration(MIC), Cry. neoformans B. 42419 [10]: 1.56 µg/mL; Minimal inhibitory concentration(MIC), T. mentagrophytes B. 32663 [11]: 6.25 µg/mL; Minimal inhibitory concentration(MIC), C. albicans IFO. 1385 [12]: 6.25 µg/mL |
